Data set [1] relates to PTEN. The following applies: ovarian cancer, reference 25; cited from earlier work.
The subject of a further data set is miR-214. As to the kind of experiment: qRT-PCR of miR-214 expression after antisense 2'-O-methyl oligonucleotide transfection. In kind it is cell-based, human. The following applies: A2780CP cells, 150 pMol per well, 72 h transfection. The procedure:
(§1) FIG. 4. […] (B) MTT assay. […] (C) Flow cytometry. Indicated cells were treated with cisplatin or DMSO for 12 h and the subG1 population was identified by flow cytometry.
Expression of miRNAs was also analysed by RNase protection or mirVana qRT-PCR miRNA detection assay. For RNase protection assay, enriched small RNA was purified using the miRVana miRNA isolation Kit (Ambion). […] Probe hybridization and RNase protection were then carried out using the mirVana™ miRNA detection kit (Ambion) according to manufacturer's instructions. After hybridization and RNase treatment, the double-strand products were resolved in a 15% polyacrylamide 8 M urea denaturing gel and visualized using phospho imaging and autoradiography. mirVanaqRT-PCR was performed according to the manufacturer's protocol (Ambion). PCR products were analyzed by electrophoresis, on a 7.5% polyacrylamide gel in 0.5×TBE and visualized by ethidium bromide staining.
2′-O-methyl (2-O-me) oligoribonucleotides were synthesized by Integrated DNA Technologies. […] […]-3′ (SEQ ID NO: 5) and 5′-[…]-3′ (SEQ ID NO: 6). 2′-O-me-scrambled miR (5′-[…]-3′) (SEQ ID NO: 7) was used as a control. Cells were grown in 6-well plate ([…]) for 24 hand transfected with 150 pMol of 2′-O-me oligoribonucleotides per well using Lipofectamine 2000. RNA and protein were extracted after 72 h transfection.
(Real-time PCR tracks product formation cycle by cycle.)

A further data set deals with Akt. Description: Immunoblotting of phosphorylation of Akt and Akt substrates in A2780CP cells after knockdown of miR-214. In kind it is cell-based, human. As to conditions: 150 pM/well, 72 h. As to the method:
(§2) PTEN mRNA level was measured by RT-PCR (panel 8). U6 (panel 7) and GAPDH (bottom panel) were used for controls. […] Anti-mi[…] and scramble 2'-O-methyl oligonucleotide were used as controls. After incubation of 72 h, cells were lysed and immunoblotted with indicated antibodies (C). […] Following 36 h incubation, cells were subjected to luciferase assay. The data are the means of three independent experiments, and error bars indicate standard deviations. (F) Representative tumor and normal tissue lysates were analyzed by Western blot with indicated antibodies (panels 1 and 2). […] U6 was used as a control (bottom panel). […] Cells were grown in 6-well plate ([…]) for 24 hand transfected with 150 pMol of 2'-O-me oligoribonucleotides per well using Lipofectamine 2000. RNA and protein were extracted after 72 h transfection. […] The cells transfected with pcDNA3.[…][…]-Togo vector alone and pcDNA3.[…][…]-Topo-miR-199a* were used as controls. […]). […] PTEN protein was examined in a same series of normal ovary and primary ovarian tumor specimens for expression of miRNAs (FIG. 2F).
On the technique in general: A western blot detects proteins with antibodies after separation by electrophoresis.

For the next data set, the system named is A2780CP cells. As to the kind of experiment: MTT cell viability and flow cytometry apoptosis in A2780CP cells. It is filed as cell-based, human. As to the method: as §1
The cells transfected with 2′-O-methyl-scramble-miR were used as control. […] Further, the cells were treated with cisplatin or vehicle DMSO.
In general terms: A flow cytometer gives signals particle by particle.

Data set [2] has as its system PTEN. Description: Immunoblotting of PTEN protein in A2780CP cells after knockdown of miR-214. It is filed as cell-based, human. As to conditions: 150 pM/well, 72 h. The procedure: as §2

Turning to `Nc1ncn([C@H]2C[C@H](O)[C@@H](CO)O2)c(=O)n1` [5-aza-2′ deoxycytidine], the PTEN protein expression entry with PTEN [1] is “failed to restore PTEN protein expression”.
As for “2′-O-methyl-anti-miR-214: antisense 2′-O-methyl oligoribonucleotide targeting miR-214, 5′-CUGCCUGUCUGUGCCUGCUGU-3′ (SEQ ID NO: 5) (all 2'-O-methyl, backbone not given here)”, the “level of miR-214” value in the data set with miR-214 is “significantly decreased”. Also, the “phosphorylation levels of Akt and Akt substrates GSK3β and p70S6K” value with Akt was “decreased”. Also, the “sensitization to cisplatin-induced apoptosis” value in the data set with A2780CP cells (cisplatin 20 uM, MTT and flow cytometry) is recorded as “considerably sensitized A2780CP cells to cisplatin-induced apoptosis”. Also, the “reduction of cell survival” value in the data set on A2780CP cells (knockdown of miR-214 alone, cell viability analysis) is recorded as “about 20%”. Further, the “protein level of PTEN” value in the data set with PTEN [2] is “increased the protein level of PTEN”.

(Values after US8906869B2 (University of South Florida, priority 2007, dated 2014).)
